In the supplement of paper PMC10627819:

Columns and labels:
B. subtilis 168 [1] = experiment: fitness (endpoint OD595 vs no drug) (fraction); higher = more growth
Summary of the method: (§1)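 Background-subtracted growth curves were the basis for fitness, taken as the optical density at entry into stationary phase over the robust mean of no-drug control wells. A cap of 1 was applied. The curves came from OD595 readings every 30 min for 14 h at 37 °C, in 384-well plates seeded at OD595 0.01 with 30 µl, or 55 µl for S. pneumoniae.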

S. pneumoniae D39V [2] = experiment: as above
Summary of the method: as §1

B. subtilis 168 [3] = experiment: Bliss interaction score (quartile over a dose matrix) (fitness difference); higher = more antagonism (negative = synergy)
Summary of the method: (§2)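 The Bliss score takes observed fitness and subtracts the expected fitness, calculated as a product of single-drug fitness values. Those single-drug values were inferred from the combination data. Fitness is OD595 at entry into stationary phase divided by the plate's robust no-drug mean, capped at 1, and the score is summarised by quartiles across technical, biological and donor/recipient replicates.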

S. aureus DSM 20231 = experiment: as above
Summary of the method: as §2

S. aureus Newman = experiment: as above
Summary of the method: as §2

S. pneumoniae D39V [4] = experiment: as above
Summary of the method: as §2
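Throughout, for Bliss interaction score (quartile over a dose matrix): first quartile when negative (synergy) and third quartile when positive (antagonism).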

C[C@H]1COc2c(N3CCN(C)CC3)c(F)cc3c(=O)c(C(=O)O)cn1c23 [Levofloxacin] + CC(=O)NC[C@H]1CN(c2ccc(N3CCOCC3)c(F)c2)C(=O)O1 [Linezolid]
fitness, B. subtilis 168 [1], one replicate
Conditions | first compound 0.001 µg/mL | first compound 0.002 µg/mL | first compound 0.0039 µg/mL | first compound 0.0078 µg/mL
partner 0.0625 µg/mL | – | 0.886 | 0.846 | 0.862
partner 0.125 µg/mL | 0.82 | – | – | 0.615
partner 0.25 µg/mL | 0.66 | – | – | 0.0853
partner 0.5 µg/mL | 0.0709 | 0.0326 | 0.0626 | –

Conditions | fitness
B. subtilis 168 [1], first compound 0.002 µg/mL, partner 0.125 µg/mL | 0.696
B. subtilis 168 [1], first compound 0.0039 µg/mL, partner 0.125 µg/mL | 0.683
B. subtilis 168 [1], first compound 0.0312 µg/mL, partner 0.125 µg/mL | 0.0311
B. subtilis 168 [1], first compound 0.0312 µg/mL, partner 0.25 µg/mL | 0.0424
B. subtilis 168 [1], first compound 0.0312 µg/mL, partner 0.5 µg/mL | 0.045
B. subtilis 168 [1], first compound 0.0625 µg/mL, partner 0.125 µg/mL | 0.0397
B. subtilis 168 [1], first compound 0.0625 µg/mL, partner 0.25 µg/mL | 0.0517
B. subtilis 168 [1], first compound 0.0625 µg/mL, partner 0.5 µg/mL | 0.0516
B. subtilis 168 [1], first compound 0.125 µg/mL, partner 0.125 µg/mL | 0.0523
B. subtilis 168 [1], first compound 0.125 µg/mL, partner 0.25 µg/mL | 0.0524
B. subtilis 168 [1], first compound 0.125 µg/mL, partner 0.5 µg/mL | 0.0424
S. pneumoniae D39V [2], first compound 0.1725 µg/mL, partner 0.2 µg/mL | 0.848
S. pneumoniae D39V [2], first compound 0.1725 µg/mL, partner 0.4 µg/mL | 0.669
S. pneumoniae D39V [2], first compound 0.1725 µg/mL, partner 0.8 µg/mL | 0.333
S. pneumoniae D39V [2], first compound 0.2 µg/mL, partner 0.105 µg/mL | 0.81
S. pneumoniae D39V [2], first compound 0.2 µg/mL, partner 0.21 µg/mL | 0.694
S. pneumoniae D39V [2], first compound 0.2 µg/mL, partner 0.42 µg/mL | 0.568
S. pneumoniae D39V [2], first compound 0.345 µg/mL, partner 0.2 µg/mL | 0.777
S. pneumoniae D39V [2], first compound 0.345 µg/mL, partner 0.4 µg/mL | 0.591
S. pneumoniae D39V [2], first compound 0.345 µg/mL, partner 0.8 µg/mL | 0.295
S. pneumoniae D39V [2], first compound 0.4 µg/mL, partner 0.105 µg/mL | 0.72
S. pneumoniae D39V [2], first compound 0.4 µg/mL, partner 0.21 µg/mL | 0.652
S. pneumoniae D39V [2], first compound 0.4 µg/mL, partner 0.42 µg/mL | 0.506
S. pneumoniae D39V [2], first compound 0.69 µg/mL, partner 0.2 µg/mL | 0.555
S. pneumoniae D39V [2], first compound 0.69 µg/mL, partner 0.4 µg/mL | 0.323
S. pneumoniae D39V [2], first compound 0.69 µg/mL, partner 0.8 µg/mL | 0.196
S. pneumoniae D39V [2], first compound 0.8 µg/mL, partner 0.105 µg/mL | 0.449
S. pneumoniae D39V [2], first compound 0.8 µg/mL, partner 0.21 µg/mL | 0.351
S. pneumoniae D39V [2], first compound 0.8 µg/mL, partner 0.42 µg/mL | 0.284

Conditions | Bliss interaction score
B. subtilis 168 [3] | 0.0633
S. aureus DSM 20231 | 0.0666
S. aureus Newman | 0.0972
S. pneumoniae D39V [4] | 0.0612
